Results published in ChEMBL document CHEMBL4602687, “Dual Binding to Orthosteric and Allosteric Sites Enhances the Anticancer Activity of a TRAP1-Targeting Drug” (J Med Chem, 2020).
Changes are numbered by the printed parent chain. Calls of active or inactive are those of the source.

How the values were obtained:
LN-229 = test: Cytotoxicity against human LN229 cells assessed as reduction in cell viability up to 3 uM measured after 24 hrs by MTT assay; type: functional, cell-based
[1] = tested on: T1, Heat shock protein 75 kDa, mitochondrial (Homo sapiens), Q12931 [E403K]; test: Inhibition of recombinant wild-type human TRAP1 E403K mutant ATPase activity expressed in Escherichia coli BL21 (DE3) up to 20 uM preincubated for 0.5 hrs followed by ATP addition and measured after 3 hrs by PiColorLock Gold reagent based colorimetric assay
T1 sequence (whole entry): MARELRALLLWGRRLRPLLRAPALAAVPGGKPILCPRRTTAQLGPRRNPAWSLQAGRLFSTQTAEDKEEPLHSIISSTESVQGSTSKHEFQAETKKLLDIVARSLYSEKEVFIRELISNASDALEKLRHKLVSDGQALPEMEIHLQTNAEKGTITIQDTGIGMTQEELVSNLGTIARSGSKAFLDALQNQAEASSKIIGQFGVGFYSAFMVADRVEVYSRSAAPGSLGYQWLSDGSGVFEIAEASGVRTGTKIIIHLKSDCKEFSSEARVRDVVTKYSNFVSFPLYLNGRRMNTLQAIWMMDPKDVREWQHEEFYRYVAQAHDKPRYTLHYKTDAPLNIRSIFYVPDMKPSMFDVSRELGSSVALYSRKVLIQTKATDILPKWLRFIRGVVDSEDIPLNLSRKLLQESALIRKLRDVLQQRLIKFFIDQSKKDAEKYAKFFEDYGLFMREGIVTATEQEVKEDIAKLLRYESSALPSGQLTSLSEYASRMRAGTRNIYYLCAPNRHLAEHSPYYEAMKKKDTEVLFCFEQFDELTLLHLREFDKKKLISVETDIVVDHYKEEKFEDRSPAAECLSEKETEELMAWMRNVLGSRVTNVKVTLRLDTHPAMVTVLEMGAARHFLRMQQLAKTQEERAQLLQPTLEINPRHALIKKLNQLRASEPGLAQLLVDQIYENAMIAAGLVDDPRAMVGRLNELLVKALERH

[2] = target: T2, Heat shock protein 75 kDa, mitochondrial (Homo sapiens) (UniProt Q12931); test: Inhibition of TRAP1 in human PC3 cells assessed as loss of mitochondrial membrane potential at 10 uM measured after 2 hrs by TMRM dye based flow cytometry; type: cell-based; details: PC-3
T2 sequence (whole entry): T1 sequence (whole entry) with K403E

Mus musculus [3] = test: In vivo inhibition of TRAP1 in nude mouse xenografted with human NCI-H460 cells assessed as increase in AMPK phosphorylation at 5 mg/kg, ip administered daily by Western blot analysis; type: functional, organism-based
[4] = target: T2, Heat shock protein 75 kDa, mitochondrial (Homo sapiens); test: Binding affinity to recombinant wild-type human TRAP1 ATP site expressed in Escherichia coli BL21 (DE3) assessed as induction of conformational change by measuring closed state population of TRAP1 at 10 uM preincubated for 30 mins followed by ATP addition and measured after 30 mins by TEM analysis (reference value: 52.1 +/- 0.6 %)
NCI-H460 = test: Antitumor activity against human NCI-H460 cells xenografted in nude mouse assessed as induction of tumor cell death by measuring increase in cleaved caspase-9 expression at 5 mg/kg, ip administered daily by Western blot analysis; type: functional, organism-based
Homo sapiens = organism: Homo sapiens; test: Inhibition of recombinant full-length human TRAP1 W383/W4F mutant expressed in Escherichia coli BL21 (DE3) assessed as intrinsic fluorescence quenching of tryptophan residues at 10 uM measured after 1 hr by fluorescence spectrophotometric method
Mus musculus [5] = test: In vivo inhibition of TRAP1 in nude mouse xenografted with human NCI-H460 cells assessed as increase in CHOP expression at 5 mg/kg, ip administered daily by Western blot analysis; type: functional, organism-based
[6] = target: T2, Heat shock protein 75 kDa, mitochondrial (Homo sapiens); test: Inhibition of TRAP1 in human PC3 cells assessed as reduction in SDHB expression at 5 uM measured after 2 to 12 hrs by Western blot analysis; type: cell-based; details: PC-3
[7] = target: T2, Heat shock protein 75 kDa, mitochondrial (Homo sapiens); test: Inhibition of TRAP1 in human PC3 cells assessed as increase in CHOP expression at 5 uM measured after 2 to 12 hrs by Western blot analysis; type: cell-based; details: PC-3
[8] = target: T2, Heat shock protein 75 kDa, mitochondrial (Homo sapiens); test: Inhibition of TRAP1 in human PC3 cells assessed as reduction in SIRT3 expression at 5 uM measured after 2 to 12 hrs by Western blot analysis; type: cell-based; details: PC-3
PC-3 = test: Cytotoxicity against human PC3 cells assessed as reduction in cell viability up to 3 uM measured after 24 hrs by MTT assay; type: functional, cell-based

Nc1ncnc2c1nc(Sc1cc3c(cc1I)OCO3)n2CCCCCCCCCC[P+](c1ccccc1)(c1ccccc1)c1ccccc1
active: Activity (LN-229) | inhibition [1] | inhibition [2] | inhibition (Mus musculus [3]) | Activity (NCI-H460) | inhibition (Homo sapiens) | inhibition (Mus musculus [5]) | inhibition [6] | inhibition [7] | inhibition [8] | Activity (PC-3)
94.2%: Activity [4]
